The results in this text go back to patent US20250295717A1, “RE[…] OF R[…] VIRUS, COMBINATION, AND APPLICATION THEREOF” (NEUREGEN BIOTHERAPEUTICS (SHANGHAI) CO. LTD, priority 2022, published 2025).

Assay [1] has as its system glioma cells (U87-luc) implanted into the brain. The assay is described as follows: Brain orthotopic glioma model U87-luc (Example 6). The settings on record: Ad5-AN 1×10^9 PFU every four days, three doses, TMZ 15 mg/kg, PBS group 22.3 days. The class given is in vivo, mouse. As for the experimental part:
For the orthotopic glioma model, 7-week-old NOD-scid mice were used. Human glioma cells, either induced with […] or not induced, were centrifuged to remove the supernatant, resulting in a cell density of approximately 2.5×10^5 cells/μL. A total of 2 μL (5×10^5 cells) was implanted into the striatum of each mouse. After three weeks, histological analysis or viral injection was performed, followed by immunohistochemical detection.
In this example, glioma cells (U87-luc) were first implanted into the brain (5×10^5 cells). After 7 days of implantation, the mice were grouped for treatment, with the PBS group serving as the control. The Ad5-AN group received a dose of 1×10^9 PFU, while the temozolomide (TMZ) gavage group received 15 mg/kg once daily for five days, followed by two days off. Additionally, there was a combination treatment group of Ad5-AN and temozolomide, with Ad5-AN administered every four days for a total of three doses.

Assay [2] relates to human glioma tissue PDX. The assay is described as follows: Patient-derived tumor xenograft (PDX) model from human glioma tissue (Example 7). The class given is in vivo, mouse. Here is the method: To further validate the combined effect of oncolytic viruses and redifferentiation therapy, this implementation was tested in a patient-derived tumor xenograft (PDX) model constructed from human glioma tissue. PDX tissues were inoculated into the armpits of nude mice for passaging, and when they reached the logarithmic growth phase, they were re-inoculated into the armpits of nude mice. When the tumor grew to approximately 100 mm^3, appropriate tumor-bearing mice were randomly grouped. After grouping, treatment commenced, with the PBS group serving as the control. The Ad5-AN group received a dose of 1×10^9 PFU, while the temozolomide (TMZ) gavage group received 15 mg/kg once daily for five days, followed by two days off. Additionally, there was a combination treatment group of Ad5-AN and temozolomide, with Ad5-AN administered every two days for a total of five doses. Tumor volume was measured every three days, and later, the animals were euthanized to weigh the tumors and perform biochemical and molecular analyses.
(In general: In xenograft studies the graft and the host belong to different species.)

Assay [3] has as its system human glioblastoma U87 ectopic implantation. The assay can be described thus: Human glioblastoma U87 BALB/CA-nu mouse ectopic implantation model, recombinant HSV (Example 8). The class given is in vivo. Here is the method:
(§1) For the subcutaneous glioma model, human U87 glioma cells were cultured, and during the logarithmic growth phase, they were inoculated into the axillae of nude mice. After two passages, the tumor tissue was collected under sterile conditions, and the tumor mass was cut into uniform small pieces approximately the size of grains of rice, which were then inoculated subcutaneously in the axillae of nude mice using an implantation needle. Once the tumor grew to approximately 100 mm^3, the mice were randomly grouped, and the treatment began. All samples were dissolved in PBS, with an injection volume of 50 μL/tumor. The length and width of the tumor were measured every three days, and the tumor volume was calculated using the formula: […]
In this implementation, type 1 herpes simplex virus (HSV) was used as an oncolytic virus vector, with fragments from human Ascl1 (SEQ ID No. 11) and the coding sequence (CDS) of human Ngn2 (SEQ ID No. 15) inserted to achieve efficient co-expression of Ascl1 and Ngn2. After packaging and purifying the recombinant HSV, tests were conducted using a human glioblastoma U87 BALB/CA-nu mouse ectopic implantation model. […] Tumor volume was measured every three days, and later, the animals were euthanized to weigh the tumors and perform biochemical and molecular analyses. […]

Assay [4] deals with human glioma U87 cells subcutaneous implantation. The assay is described as follows: Subcutaneous U87 glioma model, combination with temozolomide (Example 5). The class given is in vivo, mouse. Here is the method:
as §1
In this example, a subcutaneous implantation model using human glioma U87 cells in BALB/c nu/nu mice was adopted. U87 human glioblastoma cells were inoculated into the armpits of the nude mice during the logarithmic growth phase. When the tumor grew to approximately 100 mm^3, appropriate tumor-bearing mice were randomly grouped. After grouping, treatment commenced, with the PBS group serving as the control. The Ad5-AN group received a dose of 1×10^9 PFU, while the temozolomide (TMZ) gavage group received 15 mg/kg once daily for five days, followed by two days off. Additionally, there was a combination treatment group of Ad5-AN and temozolomide (Ad5-AN+TMZ), with Ad5-AN administered every two days for a total of five doses. Tumor volume was measured every three days, and later, the animals were euthanized to weigh the tumors and perform biochemical and molecular analyses.

Where [5] appears, read: U87 subcutaneous, extended experiment.

As to `Cn1nnc2c(C(N)=O)ncn2c1=O` [temozolomide], the average survival in assay [1] was 56.8 days. For the same compound, in assay [2], the “time at which tumors gradually relapsed post-treatment” value is reported as “around 45 days” and the “time at which tumors reached nearly 2000 mm^3” value was “around 72 days”. Further, the “tumors relapsed and began to regrow” value in assay [2] (around 45 days post-treatment) is on record as 6/6. The tumor volume decrease in assay [3] (after 10 days of treatment, HSV 2×10^6 PFU every two days, five doses, TMZ 15 mg/kg) worked out at 73.6%. In addition, the tumor recurrence in assay [3] (after two months) was 6/6. In assay [4] (setting [5]), the “time at which tumor growth approached 2000 mm^3” value is “around 60 days” and the “time at which tumors gradually relapsed post-treatment” value was “around 35 days”. For the same compound, the “tumor recurrence after 56 days” value in assay [4] (mice with recurrence / seven mice, FIG. 5) is 7/7.
